From US10925880B2, “Combination of PI3K-inhibitors” (BAYER PHARMA AKTIENGESELLSCHAFT, priority 2016, dated 2021)
Counter-ions that a name gives are not always drawn.

Assays:
Assay type in all cases: cell-based
ESKOL = assay: 72-hour cell proliferation assay (Cell Titer Glo); settings: ESKOL (MZL), single agent; for IC50: 72 h
Procedure: (§1) Combinations of Copanlisib and ABT-199 or Palbociclib in a Panel Cell Lines Assessed by the Combination Index (CI) of a 72-Hour Cell Proliferation Assay The effect of combinations of the present invention was evaluated using combination index isobologram analysis for in vitro assessment. The efficacy parameter was the effect in a 72-hour cell proliferation assay. Briefly, 3000 cells were plated in 384-well plates with appropriate growth medium. […] Cells were treated for 72 hours followed by assessment of cell viability by means of Cell Titer Glo assay (Promega). Experiments were conducted in duplicates. The mapping IC50 values were calculated. The corresponding component concentrations of copanlisib and ABT-199 or Palbociclib were calculated and used for plotting isobolograms. Effects were analyzed as described by Chou (Pharmacology Reviews 2006) and the combination index was calculated using the formula: Combination Index=[Ax]/A′+[Bx]/B′ [Ax] and [Bx] refer to component A and component B. A′ and B′ refer to the IC50 values of A and B, respectively, as a single agent. […] Cis of 0.9-1.1 were defined as additive effect. Cis greater than 1.1 were defined as antagonistic effects.

GRANTA-519 = assay: 72-hour cell proliferation assay (Cell Titer Glo); settings: GRANTA-519 (MCL), single agent; for IC50: Homo sapiens, 72 h
Procedure: as §1

HAIR-M = assay: 72-hour cell proliferation assay (Cell Titer Glo); settings: HAIR-M (MZL), single agent; for IC50: 72 h
Procedure: as §1

HC-1 = assay: 72-hour cell proliferation assay (Cell Titer Glo); settings: HC-1 (MZL), single agent; for IC50: 72 h
Procedure: as §1

JEKO-1 = assay: 72-hour cell proliferation assay (Cell Titer Glo); settings: JEKO-1 (MCL), single agent; for IC50: Homo sapiens, 72 h
Procedure: as §1

JVM-2 = assay: 72-hour cell proliferation assay (Cell Titer Glo); settings: JVM-2 (MCL), single agent; for IC50: Homo sapiens, 72 h
Procedure: as §1

KARPAS-1718 = assay: 72-hour cell proliferation assay (Cell Titer Glo); settings: KARPAS-1718 (SMZL), single agent; for IC50: 72 h
Procedure: as §1

MAVER-1 = assay: 72-hour cell proliferation assay (Cell Titer Glo); settings: MAVER-1 (MCL), single agent; for IC50: Homo sapiens, Maver1, 72 h
Procedure: as §1

MINO = assay: 72-hour cell proliferation assay (Cell Titer Glo); settings: MINO (MCL), single agent; for IC50: Homo sapiens, 72 h
Procedure: as §1

REC-1 = assay: 72-hour cell proliferation assay (Cell Titer Glo); settings: REC-1 (MCL), single agent; for IC50: Homo sapiens, Rec1, 72 h
Procedure: as §1

SP-49 = assay: 72-hour cell proliferation assay (Cell Titer Glo); settings: SP-49 (MCL), single agent; for IC50: 72 h
Procedure: as §1

SP-53 = assay: 72-hour cell proliferation assay (Cell Titer Glo); settings: SP-53 (MCL), single agent; for IC50: 72 h
Procedure: as §1

SSK41 = assay: 72-hour cell proliferation assay (Cell Titer Glo); settings: SSK41 (SMZL), single agent; for IC50: 72 h
Procedure: as §1

UPN1 = assay: 72-hour cell proliferation assay (Cell Titer Glo); settings: single agent; for IC50: UPN1 (MCL), 72 h
Procedure: as §1

VL51 = assay: 72-hour cell proliferation assay (Cell Titer Glo); settings: VL51 (SMZL), single agent; for IC50: Homo sapiens, 72 h
Procedure: as §1

Z-138 = assay: 72-hour cell proliferation assay (Cell Titer Glo); settings: Z-138 (MCL), single agent; for IC50: Homo sapiens, 72 h
Procedure: as §1

[1] = system: Mantle Cell Lymphoma (MCL), Marginal zone lymphoma (MZL) and Splenic marginal zone lymphoma (SMZL) cell lines; assay: 72-hour cell proliferation assay, summary over the cell line panel; settings: ten MCL, three MZL and three SMZL cell lines, range over panel
Procedure: as §1

Row | IC50 (KARPAS-1718) [µM] | SMILES | IC50 (ESKOL) [µM] | IC50 (GRANTA-519) [µM] | IC50 (HAIR-M) [µM] | IC50 (HC-1) [µM] | IC50 (JEKO-1) [µM] | IC50 (JVM-2) [µM] | IC50 (MAVER-1) [µM] | IC50 (MINO) [µM] | IC50 (REC-1) [µM] | IC50 (SP-49) [µM] | IC50 (SP-53) [µM] | IC50 (SSK41) [µM] | IC50 (UPN1) [µM] | IC50 (VL51) [µM] | IC50 (Z-138) [µM] | other results
1 | 0.0151 | COc1c(OCCCN2CCOCC2)ccc2c1N=C(NC(=O)c1cnc(N)nc1)N1CCN=C21 [copanlisib, 2-amino-N—[7-methoxy-8-(3-morpholin-4-ylpropoxy)-2,3-dihydroimidazo[1,2-c]quinazolin-5-yl]pyrimidine-5-carboxamide dihydrochloride] | 0.0988 | 0.111 | 0.00539 | 0.183 | 0.0409 | 0.0217 | 0.104 | 0.102 | 0.006 | 0.0025 | 0.00143 | 0.0508 | 0.015 | 0.0207 | 0.0205 | monotherapy anti-proliferative activity (ESKOL): strong; monotherapy anti-proliferative activity (GRANTA-519): moderate; monotherapy anti-proliferative activity (HAIR-M): very strong; monotherapy anti-proliferative activity (HC-1): moderate; monotherapy anti-proliferative activity (JEKO-1): strong; monotherapy anti-proliferative activity (JVM-2): strong; monotherapy anti-proliferative activity (KARPAS-1718): strong; monotherapy anti-proliferative activity (MAVER-1): moderate; monotherapy anti-proliferative activity (MINO): moderate; monotherapy anti-proliferative activity (REC-1): very strong; monotherapy anti-proliferative activity (SP-49): very strong; monotherapy anti-proliferative activity (SP-53): very strong; monotherapy anti-proliferative activity (SSK41): strong; monotherapy anti-proliferative activity (UPN1; UPN-1 (MCL)): strong; monotherapy anti-proliferative activity (VL51): strong; monotherapy anti-proliferative activity (Z-138): strong; monotherapy anti-proliferative activity [1]: very strong to moderate
2 | 7.65 | CC(=O)c1c(C)c2cnc(Nc3ccc(N4CCNCC4)cn3)nc2n(C2CCCC2)c1=O [palbociclib, reference compound] | 2.07 | ≥ 10 | 1.56 | 2.3 | 0.404 | 5.66 | 0.47 | 0.575 | 4.71 | 0.205 | 0.0959 | 2.31 | 3.4 | ≥ 10 | 1.29 | –
3 | 0.00372 | CC1(C)CCC(CN2CCN(c3ccc(C(=O)NS(=O)(=O)c4ccc(NCC5CCOCC5)c([N+](=O)[O-])c4)c(Oc4cnc5[nH]ccc5c4)c3)CC2)=C(c2ccc(Cl)cc2)C1 [venetoclax, reference compound] | ≥ 10 | 0.0177 | 0.256 | ≥ 10 | 3.43 | 5.74 | 0.00186 | 0.00128 | 0.0203 | 1.72 | ≥ 10 | 6.23 | ≥ 10 | 1.49 | 1 | –
